Some test systems named below: CCRF-CEM leukemia; HT29 colon; K-562 leukemia; MDA-MB-231 breast; NCI-H522 lung; OVCAR-3 ovarian; SK-MEL-2 melanoma; SN12C renal; SW-620 colon; U251 CNS.
Common to all, as to assay: DTP human tumour cell line panel, 48 h

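Interpolation was linear, between the two tested concentrations surrounding the appropriate level; five concentrations were tested over 48 hours in 96-well plates. GI50 = concentration required for 50% inhibition of growth. TGI: total growth inhibition.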

As to `COCCn1cc(-c2nc(-c3cc4cccnc4[nH]3)cs2)c2cc(OC)ccc21`, the GI50 (commonly the concentration at which growth is held to half of that of the control) in the assay with CCRF-CEM leukemia was 4540 nM; in the assay on HT29 colon, 3.71 µM; with K-562 leukemia it was 3.48 µM; with MDA-MB-231 breast, 1.76 µM; in the assay on NCI-H522 lung, 2.99 µM; in the assay with OVCAR-3 ovarian it was 4.28 µM. The GI50 in the assay with SK-MEL-2 melanoma is 3.05 µM; in the assay with SN12C renal it was 4.64 µM; with SW-620 colon, 4.04 µM; with U251 CNS it was 3.6 µM. Also, the TGI (usually the concentration at which net growth stops) in the assay with CCRF-CEM leukemia is greater than 100 µM; with HT29 colon it was greater than 81.2 µM; with K-562 leukemia, greater than 27.3 µM; in the assay with MDA-MB-231 breast, greater than 79.9 µM; in the assay with NCI-H522 lung, 21 µM; in the assay with OVCAR-3 ovarian, 21.7 µM. For the same compound, the TGI in the assay with SK-MEL-2 melanoma is 12.8 µM; in the assay on SN12C renal it was greater than 100 µM; in the assay with SW-620 colon it was greater than 100 µM; in the assay with U251 CNS it was greater than 59.3 µM.

As to `c1ccc(Nc2ncc(-c3ccccc3)o2)cc1`, the GI50 in the assay on CCRF-CEM leukemia is greater than 25000 nM; in the assay with HT29 colon it was greater than 25 µM; in the assay with K-562 leukemia, greater than 25 µM; with MDA-MB-231 breast, greater than 25 µM; in the assay on NCI-H522 lung, greater than 25 µM; in the assay on OVCAR-3 ovarian, greater than 25 µM. For the same compound, the GI50 in the assay with SK-MEL-2 melanoma, in the assay with SN12C renal, with SW-620 colon and with U251 CNS was greater than 25 µM in each case. Further, the total growth inhibition concentration (TGI) with CCRF-CEM leukemia, in the assay with HT29 colon, in the assay on K-562 leukemia, in the assay with MDA-MB-231 breast, in the assay with NCI-H522 lung and with OVCAR-3 ovarian was greater than 25 µM in each case. The total growth inhibition concentration (TGI) with SK-MEL-2 melanoma, with SN12C renal, in the assay on SW-620 colon and in the assay on U251 CNS was greater than 25 µM each time.

With `CC[C@@H](c1ccc(O)c(O)c1)[C@@H](CC)c1ccc(O)c(O)c1`, the GI50 with CCRF-CEM leukemia is 2880 nM; in the assay with HT29 colon, 11.9 µM; in the assay with K-562 leukemia, 3.38 µM; in the assay with MDA-MB-231 breast, 12 µM; in the assay with NCI-H522 lung it was 2.46 µM; in the assay on OVCAR-3 ovarian, 3.61 µM. The GI50 with SK-MEL-2 melanoma was 30.7 µM; in the assay with SN12C renal it was 19.3 µM; in the assay with SW-620 colon, 2.4 µM; in the assay on U251 CNS, 15.8 µM. For the same compound, the TGI is 9.39 µM in the assay on CCRF-CEM leukemia; 58.2 µM in the assay on HT29 colon; 94.5 µM in the assay on K-562 leukemia; 29.1 µM in the assay with MDA-MB-231 breast; 5.63 µM with NCI-H522 lung; 11.6 µM in the assay with OVCAR-3 ovarian. The TGI with SK-MEL-2 melanoma is 77.8 µM; with SN12C renal it was 41.3 µM; in the assay on SW-620 colon it was 5.67 µM; in the assay with U251 CNS, 37.8 µM.

In the case of `NC(=S)N/N=C\c1nccc2c(C(F)(F)F)cccc12`, the concentration for 50% growth inhibition (GI50) in the assay with CCRF-CEM leukemia is 278 nM; in the assay with HT29 colon, 0.524 µM; in the assay with K-562 leukemia, 0.44 µM; in the assay on MDA-MB-231 breast, 0.281 µM; with NCI-H522 lung, 0.269 µM; with OVCAR-3 ovarian, 0.294 µM. Also, the GI50 is 0.461 µM in the assay with SK-MEL-2 melanoma, 0.31 µM in the assay on SN12C renal, 0.463 µM in the assay with SW-620 colon and 0.224 µM in the assay with U251 CNS. Besides, the TGI with CCRF-CEM leukemia was 12.1 µM; in the assay on HT29 colon it was 16.5 µM; in the assay on K-562 leukemia it was 21.2 µM; with MDA-MB-231 breast, 17.6 µM; in the assay on NCI-H522 lung, 0.805 µM; with OVCAR-3 ovarian, 10.8 µM. Besides, the TGI came out at 8.34 µM in the assay with SK-MEL-2 melanoma, 12.4 µM in the assay with SN12C renal, 17.4 µM in the assay on SW-620 colon and 8.4 µM in the assay on U251 CNS.

Turning to `COC(=O)c1cc2oc(/C=C3/SC(=S)N(NC(C)=O)C3=O)cc2n1C`, the GI50 in the assay on CCRF-CEM leukemia was 11800 nM; in the assay on HT29 colon it was 27.2 µM; in the assay with K-562 leukemia it was 24.7 µM; in the assay with MDA-MB-231 breast it was 21.5 µM; in the assay on NCI-H522 lung, 16.4 µM; in the assay with OVCAR-3 ovarian, 19.2 µM. Besides, the GI50 with SK-MEL-2 melanoma was 23.9 µM; in the assay on SN12C renal, 21.9 µM; with SW-620 colon it was 7.51 µM; in the assay with U251 CNS it was 16 µM. Also, the TGI with CCRF-CEM leukemia was 76 µM; in the assay on HT29 colon it was greater than 100 µM; with K-562 leukemia it was greater than 100 µM; with MDA-MB-231 breast, 53.2 µM; in the assay with NCI-H522 lung, 55.4 µM; in the assay with OVCAR-3 ovarian, 55 µM. Further, the TGI in the assay on SK-MEL-2 melanoma was greater than 100 µM; in the assay on SN12C renal, 60.5 µM; in the assay on SW-620 colon, 25.5 µM; in the assay with U251 CNS, 45 µM.

`Cn1cc(-c2cc3c(N4CCN(c5ncc([C@@](C)(N)c6ccc(F)cc6)cn5)CC4)ncnn3c2)cn1`: the GI50 is 2870 nM in the assay with CCRF-CEM leukemia; 3.35 µM with HT29 colon; 2.49 µM with K-562 leukemia; 4.77 µM in the assay on MDA-MB-231 breast; 25.4 µM in the assay with SK-MEL-2 melanoma; 5.46 µM in the assay with SN12C renal. The GI50 in the assay with U251 CNS was 3.67 µM. Also, the total growth inhibition concentration (TGI) in the assay with CCRF-CEM leukemia, in the assay on HT29 colon, in the assay on K-562 leukemia, in the assay with MDA-MB-231 breast, with SK-MEL-2 melanoma and in the assay with SN12C renal was greater than 100 µM in each case. For the same compound, the total growth inhibition concentration (TGI) in the assay on U251 CNS was greater than 100 µM.

Consider `Cc1ccc(NC2=C3CCCCC3OC2=O)cc1` (centres undefined), for which the GI50 with CCRF-CEM leukemia is 21600 nM; in the assay with HT29 colon, 79.8 µM; in the assay with K-562 leukemia, 45.1 µM; in the assay on MDA-MB-231 breast, 35.2 µM; with NCI-H522 lung, 29 µM; in the assay on OVCAR-3 ovarian, 68.7 µM. Moreover, the GI50 in the assay with SN12C renal was 93 µM; with SW-620 colon, greater than 100 µM. The total growth inhibition concentration (TGI) is 84.2 µM in the assay with CCRF-CEM leukemia; greater than 100 µM with HT29 colon; greater than 100 µM in the assay with K-562 leukemia; greater than 100 µM in the assay with MDA-MB-231 breast; greater than 100 µM with NCI-H522 lung; greater than 100 µM in the assay with OVCAR-3 ovarian. For the same compound, the TGI in the assay on SN12C renal and in the assay on SW-620 colon was greater than 100 µM in each case.

Consider `C/C=C/[C@@H]1O[C@@H]2COC(=O)C2=C[C@@H]1O`, for which the GI50 in the assay with CCRF-CEM leukemia was 2940 nM; in the assay with HT29 colon it was 5.73 µM; in the assay with K-562 leukemia it was 2.53 µM; in the assay with MDA-MB-231 breast, 19.6 µM; with NCI-H522 lung, 3.95 µM; in the assay on OVCAR-3 ovarian it was 4.19 µM. The GI50 is 33.1 µM in the assay with SK-MEL-2 melanoma, 15.4 µM in the assay on SN12C renal, 2.13 µM with SW-620 colon and 18.9 µM with U251 CNS. In addition, the TGI in the assay on CCRF-CEM leukemia was greater than 100 µM; in the assay with HT29 colon, 46 µM; with MDA-MB-231 breast, 39.7 µM; with NCI-H522 lung, greater than 29.1 µM; in the assay with OVCAR-3 ovarian, 22.2 µM; in the assay on SK-MEL-2 melanoma it was greater than 79.7 µM. Also, the total growth inhibition concentration (TGI) in the assay with SN12C renal was 31.4 µM; in the assay with SW-620 colon it was 5.07 µM; with U251 CNS, 38.3 µM.
